According to patent US20250049926A1, “PHARMACEUTICAL COMPOSITIONS COMPRISING MODIFIED BETACYCLODEXTRINS” (priority 2021, published 2025):

Experiment: Solubility measurement of saturated solutions by HPLC at room temperature (0 h and 24 h)
Assay type: physicochemical
Details: buffered water with excipients, pH 4, aqueous with cosolvent or surfactant or cyclodextrin, thermodynamic from solid
Experimental: The vial contents are prepared starting with 2.5 mg of the compound of formula (I). The primary excipient is added followed by any further excipient and then the buffered water to a total volume of 500 μL. All components are mixed in a vortex mixer for ca. 5 minutes. If everything is dissolved an additional 2.5 mg of the compound of formula (I) is added and vortexed again for ca. 5 minutes. This is repeated until a saturated solution (suspension) is obtained.
The solubility in vial 1 is measured immediately as described below.
To measure solubility 400 μl of the suspension are taken and placed in a centrifugation device above a 0.2 μm filter. Centrifugation is performed at 14,000 rpm for 10 minutes and if necessary repeated for additional 10 minutes. The filter is removed from the vial and 100 μL is taken and diluted with 400 μL high-performance liquid chromatography (HPLC) diluent solution (see below) or diluted with 900 μL HPLC diluent solution in the event 5 mg or more of the compound of formula (I) was used. The pH of the solution is measured. A further 100 μL of the vial solution is taken and diluted with 400 μL of HPLC diluent solution or diluted with 900 μL HPLC diluent solution in the event 5 mg or more of the compound of formula (I) was used. The assay of the solution versus control stock solution is measured by HPLC and the solubility is calculated as described below. The HPLC diluent solution is 0.1% trifluoroacetic acid (TFA) in acetonitrile (ACN) and water (1:1 v/v).
All solubility tests are performed at room temperature.
The HPLC method for assessing solubility is performed as follows:
The solubility of the compound of formula (I) is calculated according to the following formula:
[formula] • Solubility=solubility of compound of formula (I) (mg/mL) • A=peak area of the compound of the sample tested • a=value of constant “a” in Linear regression equation y=ax+b • b=value of constant “b” in Linear regression equation y=ax+b • n=dilution time • Formulations for stability assessment are prepared as follows: […]

**Q.** With `COc1cc(N2CCNCC2)ccc1Nc1ncc2c(n1)-n1ccc(C(=O)Nc3c(C)cccc3C)c1CC2` [compound of formula (I)] as the compound, how does the solubility at 0 h (CBS 30 mM pH 4.0, NaCl 3 mg/mL, SBE-beta-CD 40 mg/mL + Kollidon 12 P188 5 mg/mL, pH exp 4.1) read?
**A.** 2590 µg/mL

**Q.** And the solubility at 24 h (CBS 30 mM pH 4.0, NaCl 3 mg/mL, SBE-beta-CD 40 mg/mL + Kollidon 12 P188 5 mg/mL, pH exp 4.2)?
**A.** 3710 µg/mL

**Q.** And the solubility at 0 h (CBS 30 mM pH 4.0, NaCl 3 mg/mL, SBE-beta-CD 40 mg/mL + Na CMC 5 mg/mL, pH exp 4.1)?
**A.** 1710 µg/mL

**Q.** What about the solubility at 24 h (CBS 30 mM pH 4.0, NaCl 3 mg/mL, SBE-beta-CD 40 mg/mL + Na CMC 5 mg/mL, pH exp n. a.) of the same compound?
**A.** 2670 µg/mL

**Q.** What about the solubility at 0 h (CBS 30 mM pH 4.0, NaCl 3 mg/mL, SBE-beta-CD 40 mg/mL + PEG 400 1 mg/mL, pH exp 4.1) of the same compound?
**A.** 2480 µg/mL

**Q.** What about the solubility at 24 h (CBS 30 mM pH 4.0, NaCl 3 mg/mL, SBE-beta-CD 40 mg/mL + PEG 400 1 mg/mL, pH exp 4.2) of the same compound?
**A.** 3730 µg/mL

**Q.** And the solubility at 0 h (CBS 30 mM pH 4.0, NaCl 3 mg/mL, SBE-beta-CD 40 mg/mL + PEG 400 5 mg/mL, pH exp 4.1)?
**A.** 2340 µg/mL

**Q.** And the solubility at 24 h (CBS 30 mM pH 4.0, NaCl 3 mg/mL, SBE-beta-CD 40 mg/mL + PEG 400 5 mg/mL, pH exp 4.2)?
**A.** 3750 µg/mL

**Q.** What about the solubility at 0 h (CBS 30 mM pH 4.0, NaCl 3 mg/mL, SBE-beta-CD 40 mg/mL + PEG 400 10 mg/mL, pH exp 4.1) of the same compound?
**A.** 2590 µg/mL

**Q.** And the solubility at 24 h (CBS 30 mM pH 4.0, NaCl 3 mg/mL, SBE-beta-CD 40 mg/mL + PEG 400 10 mg/mL, pH exp 4.2)?
**A.** 3790 µg/mL

**Q.** What about the solubility at 0 h (CBS 30 mM pH 4.0, NaCl 3 mg/mL, SBE-beta-CD 40 mg/mL + PEG 400 20 mg/mL, pH exp 4.1) of the same compound?
**A.** 2570 µg/mL

**Q.** And the solubility at 24 h (CBS 30 mM pH 4.0, NaCl 3 mg/mL, SBE-beta-CD 40 mg/mL + PEG 400 20 mg/mL, pH exp 4.2)?
**A.** 3810 µg/mL

**Q.** And the solubility at 0 h (CBS 30 mM pH 4.0, NaCl 3 mg/mL, SBE-beta-CD 40 mg/mL + PEG 400 30 mg/mL, pH exp 4.1)?
**A.** 2670 µg/mL

**Q.** What about the solubility at 24 h (CBS 30 mM pH 4.0, NaCl 3 mg/mL, SBE-beta-CD 40 mg/mL + PEG 400 30 mg/mL, pH exp 4.2) of the same compound?
**A.** 3860 µg/mL

**Q.** And the solubility at 0 h (CBS 30 mM pH 4.0, NaCl 3 mg/mL, SBE-beta-CD 40 mg/mL + PEG 4000 5 mg/mL, pH exp 4.1)?
**A.** 2420 µg/mL

**Q.** What about the solubility at 24 h (CBS 30 mM pH 4.0, NaCl 3 mg/mL, SBE-beta-CD 40 mg/mL + PEG 4000 5 mg/mL, pH exp 4.2) of the same compound?
**A.** 3670 µg/mL

**Q.** And the solubility at 0 h (CBS 30 mM pH 4.0, NaCl 3 mg/mL, SBE-beta-CD 40 mg/mL + Soybean lecithin 10 mg/mL, pH exp 4.1)?
**A.** 2520 µg/mL

**Q.** What about the solubility at 24 h (CBS 30 mM pH 4.0, NaCl 3 mg/mL, SBE-beta-CD 40 mg/mL + Soybean lecithin 10 mg/mL, pH exp 4.3) of the same compound?
**A.** 3600 µg/mL

**Q.** What about the solubility at 0 h (CBS 30 mM pH 4.0, NaCl 3 mg/mL, SBE-beta-CD 40 mg/mL + Tween 80 5 mg/mL, pH exp 4.1) of the same compound?
**A.** 2950 µg/mL

**Q.** And the solubility at 24 h (CBS 30 mM pH 4.0, NaCl 3 mg/mL, SBE-beta-CD 40 mg/mL + Tween 80 5 mg/mL, pH exp 4.2)?
**A.** 4040 µg/mL

**Q.** What about the solubility at 0 h (CBS 30 mM pH 4.0, NaCl 6 mg/mL, SBE-beta-CD 40 mg/mL + Kollidon 12 PF 2.5 mg/mL, pH exp 4.1) of the same compound?
**A.** 2370 µg/mL

**Q.** And the solubility at 24 h (CBS 30 mM pH 4.0, NaCl 6 mg/mL, SBE-beta-CD 40 mg/mL + Kollidon 12 PF 2.5 mg/mL, pH exp 4.3)?
**A.** 3690 µg/mL

**Q.** What about the solubility at 0 h (CBS 30 mM pH 4.0, NaCl 6 mg/mL, SBE-beta-CD 40 mg/mL + Kollidon 12 PF 5 mg/mL, pH exp 4.0) of the same compound?
**A.** 2510 µg/mL

**Q.** And the solubility at 24 h (CBS 30 mM pH 4.0, NaCl 6 mg/mL, SBE-beta-CD 40 mg/mL + Kollidon 12 PF 5 mg/mL, pH exp 4.2)?
**A.** 3750 µg/mL

**Q.** And the solubility at 0 h (CBS 30 mM pH 4.0, NaCl 6 mg/mL, SBE-beta-CD 40 mg/mL + Kollidon 12 PF 10 mg/mL, pH exp 4.1)?
**A.** 2520 µg/mL

**Q.** What about the solubility at 24 h (CBS 30 mM pH 4.0, NaCl 6 mg/mL, SBE-beta-CD 40 mg/mL + Kollidon 12 PF 10 mg/mL, pH exp 4.2) of the same compound?
**A.** 3700 µg/mL

**Q.** What about the solubility at 0 h (CBS 30 mM pH 4.0, NaCl 6 mg/mL, SBE-beta-CD 40 mg/mL + Propylene glycol 5 mg/mL, pH exp 4.1) of the same compound?
**A.** 2360 µg/mL
